Laboratory results as given in PubChem BioAssay AID2060495 (Molecular Pharmacology Branch, DTP, NCI, 2025).

Tested on: 521955-158-R2-J5-PDC complex spheroid viability
Assay: Anticancer human tumor 521955-158-R2-J5-PDC patient-derived pancreatic carcinoma cell line growth inhibition [GQUAD]
Settings: for IC50: curve of first compound; for viability, T/C: stronger effect = lower value
Summary of the method: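 Multi-cell-type spheroids of tumor cells with HUVEC and mesenchymal stem cells, treated with drug combinations. Concentrations descend in half-log steps from near clinical Cmax, or from 10 microM where Cmax is unknown; viability read-out.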

[1] = second compound 0.0316 µM, first compound 0.0316 µM
[2] = second compound 0.0316 µM, first compound 0.316 µM
[3] = second compound 0.1 µM, first compound 0.0316 µM
[4] = second compound 0.1 µM, first compound 0.316 µM
[5] = second compound 0.316 µM, first compound 0.0316 µM
[6] = second compound 0.316 µM, first compound 0.316 µM
[7] = second compound 1 µM, first compound 0.0316 µM
[8] = second compound 1 µM, first compound 0.316 µM
[9] = second compound 3.16 µM, first compound 0.0316 µM
[10] = second compound 3.16 µM, first compound 0.316 µM
[11] = second compound 10 µM, first compound 0.0316 µM
[12] = second compound 10 µM, first compound 0.316 µM
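Further: spheroids exposed to agents for one week before reading.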
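Wherever viability, T/C is given: 100% = DMSO vehicle control viability.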

Structure (SMILES): C=CCn1c(=O)c2cnc(Nc3ccc(N4CCN(C)CC4)cc3)nc2n1-c1cccc(C(C)(C)O)n1 + Cc1[nH]c2ccc(F)cc2c1-c1nc2c3cccnc3c3ncccc3c2[nH]1
- IC50 (second compound 0.0316 µM): 217 nM
- IC50 (second compound 0.1 µM): 182 nM
- IC50 (second compound 0.316 µM): 177 nM
- IC50 (second compound 1 µM): 175 nM
- IC50 (second compound 3.16 µM): 159 nM
- IC50 (second compound 10 µM): 192 nM
- viability, T/C [1]: 103%
- viability, T/C (second compound 0.0316 µM, first compound 0.1 µM): 84.9%
- viability, T/C [2]: 33.1%
- viability, T/C (second compound 0.0316 µM, first compound 1 µM): 14.6%
- viability, T/C (second compound 0.0316 µM, first compound 3.16 µM): 12.6%
- viability, T/C (second compound 0.0316 µM, first compound 10 µM): 12.1%
- viability, T/C [3]: 95.1%
- viability, T/C (second compound 0.1 µM, first compound 0.1 µM): 75.8%
- viability, T/C [4]: 25.8%
- viability, T/C (second compound 0.1 µM, first compound 1 µM): 15.8%
- viability, T/C (second compound 0.1 µM, first compound 3.16 µM): 11.1%
- viability, T/C (second compound 0.1 µM, first compound 10 µM): 10.5%
- viability, T/C [5]: 79.9%
- viability, T/C (second compound 0.316 µM, first compound 0.1 µM): 66.6%
- viability, T/C [6]: 33.2%
- viability, T/C (second compound 0.316 µM, first compound 1 µM): 15.2%
- viability, T/C (second compound 0.316 µM, first compound 3.16 µM): 13.2%
- viability, T/C (second compound 0.316 µM, first compound 10 µM): 12.1%
- viability, T/C [7]: 84.1%
- viability, T/C (second compound 1 µM, first compound 0.1 µM): 75.4%
- viability, T/C [8]: 23.4%
- viability, T/C (second compound 1 µM, first compound 1 µM): 12.8%
- viability, T/C (second compound 1 µM, first compound 3.16 µM): 12.6%
- viability, T/C (second compound 1 µM, first compound 10 µM): 10.4%
- viability, T/C [9]: 77%
- viability, T/C (second compound 3.16 µM, first compound 0.1 µM): 60.4%
- viability, T/C [10]: 34.8%
- viability, T/C (second compound 3.16 µM, first compound 1 µM): 15%
- viability, T/C (second compound 3.16 µM, first compound 3.16 µM): 15.3%
- viability, T/C (second compound 3.16 µM, first compound 10 µM): 19.6%
- viability, T/C [11]: 68.7%
- viability, T/C (second compound 10 µM, first compound 0.1 µM): 68.3%
- viability, T/C [12]: 36.5%
- viability, T/C (second compound 10 µM, first compound 1 µM): 18.2%
- viability, T/C (second compound 10 µM, first compound 3.16 µM): 14%
- viability, T/C (second compound 10 µM, first compound 10 µM): 15.6%

Structure (SMILES): Cc1[nH]c2ccccc2c1CCNCc1ccc(/C=C/C(=O)NO)cc1 + CN(C)c1ccc(Nc2c3ccc(NC(=O)CCN4CCCC4)cc3nc3cc(NC(=O)CCN4CCCC4)ccc23)cc1
- IC50 (second compound 0.0316 µM): 168 nM
- IC50 (second compound 0.1 µM): 117 nM
- IC50 (second compound 0.316 µM): 156 nM
- IC50 (second compound 1 µM): 180 nM
- IC50 (second compound 3.16 µM): 119 nM
- IC50 (second compound 10 µM): 67.6 nM
- viability, T/C (second compound 0.0316 µM, first compound 0.000999 µM): 132%
- viability, T/C (second compound 0.0316 µM, first compound 0.00316 µM): 110%
- viability, T/C (second compound 0.0316 µM, first compound 0.00999 µM): 133%
- viability, T/C [1]: 109%
- viability, T/C (second compound 0.0316 µM, first compound 0.0999 µM): 72.3%
- viability, T/C [2]: 23.4%
- viability, T/C (second compound 0.1 µM, first compound 0.000999 µM): 113%
- viability, T/C (second compound 0.1 µM, first compound 0.00316 µM): 132%
- viability, T/C (second compound 0.1 µM, first compound 0.00999 µM): 128%
- viability, T/C [3]: 121%
- viability, T/C (second compound 0.1 µM, first compound 0.0999 µM): 54.8%
- viability, T/C [4]: 19.7%
- viability, T/C (second compound 0.316 µM, first compound 0.000999 µM): 105%
- viability, T/C (second compound 0.316 µM, first compound 0.00316 µM): 125%
- viability, T/C (second compound 0.316 µM, first compound 0.00999 µM): 123%
- viability, T/C [5]: 90.8%
- viability, T/C (second compound 0.316 µM, first compound 0.0999 µM): 68.7%
- viability, T/C [6]: 24.4%
- viability, T/C (second compound 1 µM, first compound 0.000999 µM): 107%
- viability, T/C (second compound 1 µM, first compound 0.00316 µM): 114%
- viability, T/C (second compound 1 µM, first compound 0.00999 µM): 134%
- viability, T/C [7]: 114%
- viability, T/C (second compound 1 µM, first compound 0.0999 µM): 82.6%
- viability, T/C [8]: 19%
- viability, T/C (second compound 3.16 µM, first compound 0.000999 µM): 91.7%
- viability, T/C (second compound 3.16 µM, first compound 0.00316 µM): 116%
- viability, T/C (second compound 3.16 µM, first compound 0.00999 µM): 119%
- viability, T/C [9]: 97%
- viability, T/C (second compound 3.16 µM, first compound 0.0999 µM): 56.9%
- viability, T/C [10]: 13.2%
- viability, T/C (second compound 10 µM, first compound 0.000999 µM): 70.7%
- viability, T/C (second compound 10 µM, first compound 0.00316 µM): 103%
- viability, T/C (second compound 10 µM, first compound 0.00999 µM): 79.3%
- viability, T/C [11]: 82.6%
- viability, T/C (second compound 10 µM, first compound 0.0999 µM): 33.3%
- viability, T/C [12]: 3.21%
